Measurements reported in patent EP4459287A1, “METHODS AND TOOLS FOR DETECTING THE IMPACT OF COMPOUNDS ON PROTEIN, RNA OR DNA INTERACTIONS” (Synsight "Génopole Entreprises", priority 2023, dated 2024).
pIC50: −log10 of the molar value. One block for each compound: values may come before it.

Experiments:
TDP-43 = assay: Four TDP-43 tests (stress granule enrichment, subcellular localization, CFTR alternative splicing, G146A aggregation); type: cell-based
From the text: The 13 selected compounds have then been tested in the three cellular tests, i.e. enrichment of wt TDP-43 in stress granules and their subcellular localization in presence of the compounds to be tested, and the effects of the compounds to be tested on the alternative splicing of the cystic fibrosis transmembrane conductance regulator (CFTR) gene by wt TDP-43. Finally, the effects of the 13 compounds on the aggregation of the G146A mutant of TDP-43 has been tested.

p53/MDM2 interaction = target: T1, p53/MDM2 interaction (Homo sapiens, UniProt Q00987); assay: MT bench cell-based assay of p53/MDM2 interaction on HCS (PCC co-localization score); settings: for inhibition of the p53/MDM2 interaction: U-2 OS cells
T1 construct: Human p53 and MDM2 full length cDNA were amplified by PCR; expressed in transfected cells; host or cells: U-2 OS (human osteosarcoma)
Experimental: The MT bench was done using Human Osteosarcoma (U-2 OS) cell line which is the reference for cellular imagery. U-2 OS cells were cultured at 37°C in a humidified atmosphere with 5% CO2 in Dulbecco's modified Eagle's medium (DMEM, Life Technologies) supplemented with 10% FBS (Fetal Bovine Serum, Life Technologies) and 1% penicillin/streptomycin.
The generation of the cellular plate (seeding, transfection, treatment) was done automatically using the liquid handler BRAVO from Agilent equipped with a 96-LT (Large Tips) head. U-2 OS cells were seeded on black 96-well plates cell carrier ultra (PerkinElmer) at a density of 18.000 cells per well and after 24h incubation in a humidified incubator at 37°C with 5% CO2 were co-transfected with 12µg human p53-FL(SEQ ID N°15)_C_RFP- MBD and 03µg human MDM2-FL(SEQ ID N°21)_C_GFP plasmids for the positive control (untreated condition) or 12µg human p53-F19AW23AL26A(SEQ ID N°20)_C_RFP-MBD and 0.3µg human MDM2-FL(SEQ ID N°21)_C_GFP plasmids corresponding to the negative control (non-interacting condition / treated condition) using 0.5µg Lipofectamine 2000 (Invitrogen) in optiMEM for 18h.
After 18h of transfection, cells were fixed with ice-cold methanol 100% for 10min at -20°C, washed with PBS and then further fixed with 4% Para FormAldehyde (PFA) in PBS freshly prepared for 10min at RT. […] After washing with PBS, cell nuclei were stained with DAPI (0.1µg/mL) for 5min at RT and samples kept into PBS for fluorescence microscopy imaging. The cellular fluorescent signal was acquired on HCS imaging system Opera Phenix from PerkinElmer, using a 40X water immersion 1.1NA objective and with Harmony® software.
After image acquisition, successive building blocks from Harmony® software was used for image segmentation (find nuclei, find cytoplasm, and select population through threshold on GFP and RFP maximum and mean intensities, as well as cell area). Both images were then filtered using SER Ridge filters to highlight microtubule structures in the cytoplasm.
The PCC is a well-established correlation score to measure co-localization and calculated as follows [formula] where Ri and Gi are the pixel intensity values and Rav and Gav are the means of red and green channel, respectively. The values are range between +1 (perfect correlation) to -1 (perfect inverse correlation), with 0 being the absence of co-localization. Thus, the PCC values reflect the co-localization between bait and prey proteins into cytoplasm, translating the interaction on the microtubule network.
This normalization was done by extrapolating the PCC values relatively to the controls, by using the mean of negative control wells and the mean of positive control wells.

[1] = cellular data, Vu et al., 2013; read-out: IC50 MTT assay; cited from earlier work
MDM2-FL_C_GFP (human) = MDM2-FL_C_GFP (human) (UniProt Q00987); assay: MT bench normalized PCC score, fixed U-2 OS cells
MDM2-FL_C_GFP (human), sequence (Q00987 whole entry): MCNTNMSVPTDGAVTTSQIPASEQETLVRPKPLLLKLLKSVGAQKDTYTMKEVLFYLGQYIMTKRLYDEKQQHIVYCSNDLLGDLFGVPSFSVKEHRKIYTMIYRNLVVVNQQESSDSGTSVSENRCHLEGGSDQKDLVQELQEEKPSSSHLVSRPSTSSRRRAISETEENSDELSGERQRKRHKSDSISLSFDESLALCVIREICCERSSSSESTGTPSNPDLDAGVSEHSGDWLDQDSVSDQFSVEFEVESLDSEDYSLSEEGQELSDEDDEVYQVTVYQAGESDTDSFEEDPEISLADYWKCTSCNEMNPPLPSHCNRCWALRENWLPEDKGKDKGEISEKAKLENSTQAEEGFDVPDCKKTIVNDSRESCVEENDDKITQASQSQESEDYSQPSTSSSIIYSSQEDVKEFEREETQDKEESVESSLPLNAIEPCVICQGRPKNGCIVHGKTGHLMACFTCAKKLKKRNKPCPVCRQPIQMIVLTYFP

T1 sequence (Q00987 whole entry): as above

Compound: O=C1Nc2ccc3ncsc3c2C1=Cc1cnc[nH]1 [PKRi]
effect in the four tests (TDP-43): showed an effect on at least two of the four tests

Compound: CCOc1cc(C(C)(C)C)ccc1C1=N[C@@](C)(c2ccc(Cl)cc2)[C@@](C)(c2ccc(Cl)cc2)N1C(=O)N1CCN(CCCS(C)(=O)=O)CC1 [RG7112]
inhibition of the p53/MDM2 interaction (p53/MDM2 interaction; 0.05µM (low concentration)): weak inhibition of the interaction
inhibition of the p53/MDM2 interaction (p53/MDM2 interaction; 0.5µM (medium concentration)): moderate inhibition of the interaction
inhibition of the p53/MDM2 interaction (p53/MDM2 interaction; 5µM (high concentration)): strong inhibition of the interaction
inhibition of the p53/MDM2 interaction (p53/MDM2 interaction; 50µM (high concentration)): strong inhibition of the interaction
disruption of p53/MDM2 interaction and re-localization of MDM2 in the nucleus (p53/MDM2 interaction; increasing concentrations 0.05µM, 0.5µM, 5µM, 50µM, fixed U-2 OS cells): dose-dependent manner
pIC50 [1]: 6.40

Compound: O=C1C(=O)c2ccccc2-c2ccccc21 [9,10-Phenanthrenequinone]
effect in the four tests (TDP-43): showed an effect on at least two of the four tests

Compound: Nc1ncnc2c1c(I)cn2[C@@H]1O[C@H](CO)[C@@H](O)[C@H]1O [5-iodotubercidin]
effect in the four tests (TDP-43): showed an effect on at least two of the four tests

percent of the interaction abrogated (against wild-type p53) (MDM2-FL_C_GFP (human)): > 90%
Compound: p53-F19A_C_RFP-MBD
